Measurements as given in PMC12030062, “From In Vitro Cytotoxicity to In Vivo Zebrafish Assays: A Study on 3,3-Dichloro β-, γ- and δ-Lactams and Their Biological Activity Profiles” (Pharmaceuticals, 2025).
In brackets after ≈: the same amount, converted by molar mass.

Tests used:
[1] = tested on: murine Swiss albino fibroblast (3T3) cell line; assay: Cell viability, MTT assay, 3T3; format: cell-based; details: 24 h incubation, MTT endpoint
Procedure: (§1) Two different endpoints, 3-(4,5-dimethyl-2-thiazolyl)-2,5-diphenyltetrazolium bromide (MTT) and neutral red uptake (NRU), were used to assess differences in cell-induced cytotoxicity. […] In addition, NRU evaluates the interaction of these drugs with the plasmatic membrane. Cell responses were determined from the MTT [16] and NRU [17] assays, using the two proposed cell lines. Cytotoxicity assays were performed at concentrations equal to 80 and 250 µg/mL. The IC50 value, referring to the half-maximal inhibitory concentration, was determined as a key parameter in cytotoxicity studies (Table 1). It plays a crucial role in evaluating cell viability and assessing cellular responses to various drugs or toxins. For cases where IC50 values were below 80 µg/mL, additional studies at lower concentrations were conducted to accurately determine these values. […] The selectivity index (SI), used as a measurement of action against the tumor cell line in comparison with a normal cell line, was also included.
(§2) • In Vitro Assay Using Human Erythrocytes • - Acquisition and Extraction of the Erythrocytes Human blood samples were obtained from the Banc de Sang i Teixits de Barcelona (Spain) from the Catalan Department of Health. Blood was deposited in tubes with the anticoagulant EDTA-K3. Blood samples were centrifuged at 3000 rpm and 4 °C for 10 min (Megafuge 2.0 R. Heraeus Instruments, Hanau, Germany) to induce sedimentation. Plasma was extracted with a Pasteur pipette. Next, the residual pellet was washed with PBS at pH 7.4. This procedure was repeated three times to remove residual leukocytes and platelets and to concentrate the erythrocytes. Following the last wash, the erythrocyte suspension was diluted (1:1) in PBS at pH 7.4 to obtain a suitable erythrocyte suspension (cell density of 8 × 10^9 cell/mL). • - Hemolysis Assay The hemolysis assay determined the capability of different compounds to induce the hemolysis of the erythrocyte membrane. Stock solutions of each compound at 1 mg/mL in PBS at pH 7.4 were prepared. Different volumes (10–80 μL) were placed in polystyrene tubes, and an aliquot of 25 µL of the erythrocyte suspensions was added to each tube. The final volume was 1 mL. The tubes were incubated at room temperature under rotatory conditions. Then, the tubes were centrifuged at 10,000 rpm for 5 min. The supernatants’ absorbance at 540 nm (Shimadzu UV-160A, Shimadzu, Duisburg, Germany) was compared with that of the positive (erythrocytes hemolyzed with distilled water) and negative (erythrocyte suspension in PBS at pH 7.4) controls. The degree of hemolysis was determined using the following equation: Hemolysis (%) = 100 × (Abs − Abs0)/(Abs100 − Abs0) where Abs, Abs0, and Abs100 are the absorbance of the test samples, of the suspension treated with isotonic phosphate–buffered saline (PBS), and of the suspension of complete hemolysis treated with distilled water, respectively. • In Vitro Essay Using Cell Cultures The murine Swiss albino fibroblasts (3T3) and the squamous cell carcinoma (A431) cell lines were obtained from Celltec UB. Cells were grown in DMEM medium (4.5 g/L glucose) supplemented with 10% (v/v) FBS, 2 mM L-glutamine, 100 U/mL penicillin, and 100 µg/mL streptomycin at 37 °C with 5% CO2. Cells were routinely cultured in 75 cm^2 culture flasks and were trypsinized using trypsin–EDTA when the cells reached approximately 80% confluence. The trypan blue assay, which allows for the direct identification and enumeration of the live (unstained) and dead (blue) cells in the cell population, was used to evaluate the viability of the cells in the cell suspension obtained. • - Cell Viability Assays Cell lines of 3T3 (1 × 10^5 cells/mL) and A431 (5 × 10^4 cells/mL) were grown at defined densities in the 60 central wells of a 96-well plate. The cells were incubated for 24 h in 5% CO2 at 37 °C. […]

[2] = tested on: murine Swiss albino fibroblast (3T3) cell line; assay: Cell viability, NRU assay, 3T3; format: cell-based; details: Mus musculus, 24 h incubation, NRU endpoint
Procedure: as §1, §2

[3] = tested on: A431 cell line (squamous cell carcinoma); assay: Cell viability, MTT assay, A431; format: cell-based
Procedure: as §1, §2

A431 cells = assay: AO/EB double staining, cellular death events; format: cell-based, human; details: A431, 24 h, 10-160 µg/mL

CC(C)(C)N1C(=O)C(Cl)(Cl)C1c1ccccc1 (centres unmarked) [Compound 1]
IC50 (MTT) 3T3 [1]: 210.42 ± 2.40 µg/mL (≈ 773 µM) | IC50 ([1]; Mus musculus, 24 h): 210 µg/mL (≈ 772 µM) | IC50 [2]: > 250 µg/mL | IC50 (MTT) A431 ([3]; 24 h incubation, MTT endpoint, A431): 71.65 ± 1.23 µg/mL (≈ 263 µM) | IC50 ([3]; Homo sapiens, A-431, 24 h, 24 h incubation, MTT endpoint, A431, read-out: IC50 (MTT) A431): 71 µg/mL (≈ 261 µM) | SI (MTT), selectivity index ([3]; SI = IC50 (3T3)/IC50 (A431), MTT): 2.94 | selective cytotoxicity, A431 in comparison with 3T3 cells ([3]; lower IC50 for A431 than 3T3): some selective cytotoxicity | mode of cell death (A431 cells): induces cell death primarily via apoptosis
